Assay results taken from a melting point compilation (Tetko et al.; mined from patent text by program, amines drawn as free bases though some values may be those of a salt).

Row | SMILES | melting point
1 | CCCCOC(=O)c1ccc(NC2=NC3=NC(Nc4ccc(C(=O)OCCCC)cc4)=NC4=NC(Nc5ccc(C(=O)OCCCC)cc5)=NC(=N2)N34)cc1 | 289 to 290 °C
2 | CC(=O)N(C(C)=O)c1c(C#N)cnn1-c1c(F)c(F)c(C)c(F)c1F | 132 to 133 °C
3 | CCCOc1ncc(N(C)C)cc1-c1nc2c(CCC)nn(C)c2c(=O)[nH]1 | 162 °C
4 | Cn1nnc(-c2cccnc2)n1 | 108 to 110 °C
5 | CC(=O)NCC1CC1c1cccc2nc(C(F)(F)F)cn12 (stereo not given) | 135 to 137 °C
6 | CCOC(=O)Cc1c(C(=O)OCC)c(C)c(C(=O)c2ccc(Cl)cc2)n1C | 91 to 93 °C
7 | CC1=NN=C(N2N=C(c3ccc([N+](=O)[O-])cc3)c3cc4c(cc3CC2C)OCO4)SC1 (stereo not given) | 203 to 204 °C
8 | CNS(=O)(=O)CCS(C)(=O)=O | 116 to 117 °C
9 | CCOC(=O)c1cccc(C(=O)CC)c1OCCN(CC)CC | 103 to 105 °C
10 | CC(c1ccc(C#N)nc1)C(O)(Cn1cncn1)c1ccc(F)cc1F (stereo not given) | 136 to 141 °C
11 | Cc1cc(C)c(Nc2nc(C)ccc2S(=O)(=O)c2ccc(OCc3cc(Cl)nc(Cl)c3)cc2)c(C)c1 | 192 to 201 °C
12 | COc1ccc(Cl)c(C)c1C=O | 86 to 88 °C
13 | CC(C)CC(Br)C(=O)N1CCC[C@H]1CO (stereo not given in full) | 79 to 82 °C
14 | N#Cc1cnc2cc(/C=C/CCCN3CCOCC3)ccc2c1Nc1ccc(Cl)cc1Cl | 142 to 144 °C
15 | CCn1nc(C)sc1=Nc1ccc(N2CCN(c3ccc(OC)cc3)CC2)cc1 | 175 °C
16 | CNS(=O)(=O)Cc1ccc(C)cc1 | 49 to 52 °C
17 | CC1=C(N)C(=O)C2CC1C2(C)C (stereo not given) | 45 to 46 °C
18 | CCCCCCCCCCCCCC(=O)Nc1ccc(Cl)c(NC(=CC(=O)OCC)NNc2c(Cl)cc(Cl)cc2Cl)c1 | 91 to 93 °C
19 | Cc1cc(Cl)cc(C(=O)NNCC(=O)NCc2ccccc2)c1NC(=O)c1cc(Br)nn1-c1ncccc1Cl | 120 to 121 °C
20 | CCOC(=O)Cc1c(C(=O)OCC)sc2c1cc(C(=O)OCC)n2CC(=O)OCC | 190 °C
21 | Cc1cc(C#N)cc2c(=O)oc(-c3cc(Br)nn3-c3ncccc3Cl)nc12 | 263 to 267 °C
22 | OC[C@H]1O[C@@H]1c1ccc(Cl)cc1 | 59 to 68 °C
23 | Cc1c(CCCl)c(=O)oc2cc(O)cc(O)c12 | 218 to 220 °C
24 | Cc1c(O[Si](C(C)C)(C(C)C)C(C)C)cc2occ(N3CCC(O)(c4ccc(F)cc4)CC3)c(=O)c2c1Br | 193 to 195 °C
25 | Cn1ncc2nn(-c3cccc(C(F)(F)F)c3)c(=O)cc21 | 160 to 163 °C
26 | Fc1cccc(F)c1N1CS/C1=N/N=C\c1ccc(-c2ncn(-c3ccc(OC(F)(F)F)cc3)n2)cc1 | 144 to 146 °C
27 | COc1cc(Cl)cnc1N | 93 to 94 °C
28 | CCOc1nn(CCO)cc1C(=O)NCc1ccc(Cl)cc1Cl | 152 to 153 °C
29 | CC(NC(N)=C[N+](=O)[O-])C1=CCC=CC1 (stereo not given) | 120 to 125 °C

Continued, values first:

Row | melting point | SMILES
30 | 66 to 67 °C | Cc1cccc(C(=O)C(Br)c2ccnc(F)c2)c1 (stereo not given)
31 | 97 to 99 °C | COc1ccc(NN=C(Sc2cccc(OC)c2)C(C)=O)cc1
32 | 147 to 148 °C | CCOC(=O)Cn1c(-c2ccc(C(F)(F)F)cc2)nc2cccnc21
33 | 96 to 99 °C | COc1cccc(-c2nc(-c3ccccn3)no2)c1
34 | 105 to 107 °C | CCC(O)(CC)c1cc(C)c(-c2cccc(OCc3ccc(CO)c(CO)c3)c2C)c(C)c1
35 | 159 to 168 °C | c1ccc(C(CCN2CC3=C(C2)c2cccc4cccc3c24)(c2ccccc2)c2ccccc2)cc1
36 | 209 to 210 °C | CC(=O)c1cccc(-c2c(C)c(NC(=O)CC(C)(C)C)c(C)c3c2OCC3c2ccc(C(C)C)cc2)c1 (stereo not given)
37 | 48 to 50 °C | CCOC(=O)c1nc2ccccc2c(=O)n1C
38 | 200 °C | O=C(Nc1ccc(C(=O)N2C[C@@H]3CCCN3c3ccccc32)cc1)c1ccccc1-c1ccccc1
39 | 127 to 129 °C | CCCCCCCCOc1ccc2c(c1)C(=O)c1cc3ccccc3cc1C2=O
40 | 150 °C | NCCNCCCNCCN1C(=O)c2cccc3cc4ccccc4c(c23)C1=O
41 | 110 to 111 °C | Cc1c(C(=O)c2cccnc2)sc2cc(Br)ccc12
42 | 191 to 193 °C | COc1ccc([C@@H]2Cc3c(Cl)cccc3NC(=O)[C@@H]2O)cc1
43 | 109 to 111 °C | O=C(c1ccccc1)C(OCc1ccc(Cl)cc1Cl)n1ccnc1 (stereo not given)
44 | 127 to 128 °C | Oc1nc(-c2ccccc2)sc1CCc1ccccc1
45 | 125 to 126 °C | COc1ccccc1Oc1cccc(CC(=O)O)c1O
46 | 77 to 80 °C | CN1CCN(CCCCCCCCCOc2ccc3oc(-c4ccccc4)cc(=O)c3c2)CC1
47 | > 300 °C | O=C(O)c1[nH]c(=O)c2ccccc2c1-c1ccccc1
48 | 79 to 80 °C | C1=CC(CCC2c3ccccc3-c3ccccc32)c2ccccc21 (stereo not given)
49 | > 210 °C | CC(C)(C)N(NC(=O)c1ccccc1)C(=O)c1ccncc1
50 | 184 to 190 °C | O=C(NCC1(c2ccccc2)CCCCC1)Nc1ccc(I)cc1

Row | melting point | SMILES
51 | 94 to 96 °C | CC(C)N(C)c1nccc(Oc2ccc(NC(=O)c3cc(F)cc(N4CCOCC4)c3)c3ccccc23)n1
52 | 85 °C | CCOC(=O)c1cccc(NC(=O)NCC(=O)N2[C@@H](c3ccccc3)SC[C@H]2C(=O)OC(C)(C)C)c1
53 | 106 to 107 °C | CC(=O)c1ccc(CCNS(=O)(=O)c2ccc(F)cc2)cc1
54 | 208 °C | Nc1cc(F)c2[nH]nc(NC(=O)c3ccccc3)c2c1
55 | 70 to 72 °C | C=CCc1ccccc1OCC(O)CNC1CCc2ccccc2C1 (stereo not given)
56 | 185 to 187 °C | CCOC(=O)Nc1nc2ccccc2c2c1nc(CC)n2CCCCNS(C)(=O)=O
57 | 231 °C | C=C(C)C#Cc1ccc2c(c1)NC(=O)CC(c1cccc(C#N)c1)=N2
58 | 200 to 202 °C | O=C(CNS(=O)(=O)c1ccc2ccccc2c1)NCC(NC(=O)C1CCN(c2ccncc2)CC1)C(=O)N1CCCCC1 (stereo not given)
59 | 210 to 211 °C | Cc1cc(C)c(C)c(COc2cccc(-c3ccoc3C(=O)NNC(=O)c3ccc(O)c(C#N)c3)c2)c1C
60 | 57 to 60 °C | CC(=O)C1(C(=O)N[C@H](C)c2ccccc2)CCC1
61 | 105 to 106 °C | CC(C)NC(C)C(=O)Nc1cccc2c1C(=O)c1c(NC(=O)C(C)NC(C)C)cccc1C2=O (stereo not given)
62 | 221 to 222 °C | Oc1ccc(CCNc2ncnc3c(F)ccc(F)c23)cc1
63 | 118 °C | C=C(CS(=O)(=O)Cc1ccccc1)c1ccccc1
64 | 102 to 103 °C | c1cn(CCCc2ccc(OCc3coc(-c4ccsc4)n3)cc2)cn1
65 | 183 to 184 °C | CC(C)n1c2c(c3cccc(F)c31)C(=O)NCC2
66 | 164 to 166 °C | CCCc1ccccc1OCCCOc1ccc2c(=O)cc(C(=O)O)oc2c1
67 | 125 to 127 °C | Cn1cc(C2=C(c3c4n(c5ccccc35)CCN(C(=O)OC(C)(C)C)C4)C(=O)OC2=O)c2ccccc21
68 | 143 to 147 °C | CNC(CC(C)C)c1nc(-c2ccc3c(c2)Nc2ccccc2O3)cs1 (stereo not given)
69 | 202 °C | CCOC(=O)C1=C(COCCCc2nc3ccccc3n2C)NC(C)=C(C(=O)NC(C)(C)C)C1c1ccccc1Cl (stereo not given)
70 | 159 to 163 °C | CNC(=O)C(Cc1ccc(OC)cc1)NC(=O)C(C)(CC(C)C)c1c(S)cccc1Cl (stereo not given)
